Test results taken from paper PMC4577729, “7-(Pyrazol-4-yl)-3H-imidazo[4,5-b]pyridine-based derivatives for kinase inhibition: Co-crystallisation studies with Aurora-A reveal distinct differences in the orientation of the pyrazole N1-substituent” (Bioorganic & Medicinal Chemistry Letters, 2015).

Legend:
Aurora A [1] = target: T1, Aurora A (Homo sapiens, UniProt O14965); assay: Aurora-A microfluidic kinase assay; assay type: biochemical; conditions: biochemical; mean of two determinations or mean ±SD for n > 2
T1 sequence (O14965 1-403): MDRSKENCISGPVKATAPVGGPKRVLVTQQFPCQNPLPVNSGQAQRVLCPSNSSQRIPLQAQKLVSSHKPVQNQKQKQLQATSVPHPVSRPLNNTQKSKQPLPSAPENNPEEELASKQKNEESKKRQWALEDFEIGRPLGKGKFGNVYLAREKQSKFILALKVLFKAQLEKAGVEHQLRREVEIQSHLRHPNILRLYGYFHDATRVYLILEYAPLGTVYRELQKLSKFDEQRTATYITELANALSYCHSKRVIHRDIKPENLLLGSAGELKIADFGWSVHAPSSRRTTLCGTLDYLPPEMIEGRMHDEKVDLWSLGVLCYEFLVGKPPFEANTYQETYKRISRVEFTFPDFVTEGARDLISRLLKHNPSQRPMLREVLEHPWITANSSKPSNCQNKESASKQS
Excerpt: (§1) As part of our medicinal chemistry programme to discover selective inhibitors of Aurora-A,[12] we introduced the 1-benzyl-1H-pyrazol-4-yl moiety at C7 of the imidazo[4,5-b]pyridine scaffold to provide 7a (Table 1). We previously reported 1,3-dimethyl-1H-pyrazol-4-yl as a preferred substituent at the C2 position of the imidazo[4,5-b]pyridine scaffold[11] and this moiety was therefore incorporated into the design of 7a and analogues presented in this study. […] This in vitro profile prompted us to investigate this C7-pyrazole substituted imidazo[4,5-b]pyridine subseries in more detail. Firstly, we attempted to increase biochemical potency against Aurora-A, and also to improve microsomal stability.
(§2) [17] Aurora-A and Aurora-B IC50 values were determined by using a microfluidic assay which monitors the separation of a phosphorylated product from its substrate, as described in Ref. [12].

Aurora B = Aurora B (Homo sapiens, UniProt Q96GD4); assay: Aurora-B microfluidic kinase assay; conditions: biochemical; mean of two determinations or mean ±SD for n > 2
Aurora B, sequence (Q96GD4 whole entry): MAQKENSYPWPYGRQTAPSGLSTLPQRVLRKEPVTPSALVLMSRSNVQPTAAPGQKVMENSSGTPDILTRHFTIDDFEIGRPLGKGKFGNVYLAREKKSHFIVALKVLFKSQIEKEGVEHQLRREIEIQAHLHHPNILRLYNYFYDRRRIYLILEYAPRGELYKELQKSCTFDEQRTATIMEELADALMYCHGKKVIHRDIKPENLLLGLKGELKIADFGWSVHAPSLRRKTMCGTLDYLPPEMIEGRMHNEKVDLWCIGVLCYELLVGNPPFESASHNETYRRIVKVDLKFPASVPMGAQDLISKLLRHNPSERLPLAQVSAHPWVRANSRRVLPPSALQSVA
Excerpt: as §1, §2

[2] = Human liver microsomal stability; assay type: in vitro ADME; conditions: percentage of compound metabolised after a 30 min incubation, human liver microsomes
Protocol: [18] MLM and HLM microsomal stabilities were determined as described in Ref. [12].

Aurora A [3] = target: T1, Aurora A; assay: Kinase selectivity profiling; assay type: biochemical; conditions: 1 µM, assay duplicates
Protocol: (§3) [20] Kinase selectivity profiling for compounds 7a, 7d, 14d and 14g was carried out at the International Centre for Protein Kinase Profiling, Division of Signal Transduction Therapy, University of Dundee.
(§4) Table S1: Kinase selectivity profiling of compounds 7a and 7d in a 102-kinase panel screened at a concentration of 1 µM.
(§5) Table S2: Kinase selectivity profiling of compounds 14d and 14g in a 105-kinase panel screened at a concentration of 1 µM.

BRSK2 = BRSK2 (Homo sapiens, UniProt Q8IWQ3); assay: Kinase selectivity profiling; assay type: biochemical; conditions: 1 µM, assay duplicates
Protocol: as §3, §4, §5

CK2 = CK2 (Homo sapiens, UniProt P68400); assay: Kinase selectivity profiling; assay type: biochemical; conditions: 1 µM, assay duplicates
Protocol: as §3, §4, §5

DYRK1A = DYRK1A (Homo sapiens, UniProt Q13627); assay: Kinase selectivity profiling; assay type: biochemical; conditions: 1 µM, assay duplicates
Protocol: as §3, §4, §5

DYRK2 = DYRK2 (Homo sapiens, UniProt Q92630); assay: Kinase selectivity profiling; assay type: biochemical; conditions: 1 µM, assay duplicates
Protocol: as §3, §4, §5

DYRK3 = DYRK3 (Homo sapiens, UniProt O43781); assay: Kinase selectivity profiling; assay type: biochemical; conditions: 1 µM, assay duplicates
Protocol: as §3, §4, §5

EF2K = EF2K (Homo sapiens, UniProt O00418); assay: Kinase selectivity profiling; assay type: biochemical; conditions: 1 µM, assay duplicates
Protocol: as §3, §4, §5

GCK = GCK (Homo sapiens, UniProt Q12851); assay: Kinase selectivity profiling; assay type: biochemical; conditions: 1 µM, assay duplicates
GCK, sequence (Q12851 whole entry): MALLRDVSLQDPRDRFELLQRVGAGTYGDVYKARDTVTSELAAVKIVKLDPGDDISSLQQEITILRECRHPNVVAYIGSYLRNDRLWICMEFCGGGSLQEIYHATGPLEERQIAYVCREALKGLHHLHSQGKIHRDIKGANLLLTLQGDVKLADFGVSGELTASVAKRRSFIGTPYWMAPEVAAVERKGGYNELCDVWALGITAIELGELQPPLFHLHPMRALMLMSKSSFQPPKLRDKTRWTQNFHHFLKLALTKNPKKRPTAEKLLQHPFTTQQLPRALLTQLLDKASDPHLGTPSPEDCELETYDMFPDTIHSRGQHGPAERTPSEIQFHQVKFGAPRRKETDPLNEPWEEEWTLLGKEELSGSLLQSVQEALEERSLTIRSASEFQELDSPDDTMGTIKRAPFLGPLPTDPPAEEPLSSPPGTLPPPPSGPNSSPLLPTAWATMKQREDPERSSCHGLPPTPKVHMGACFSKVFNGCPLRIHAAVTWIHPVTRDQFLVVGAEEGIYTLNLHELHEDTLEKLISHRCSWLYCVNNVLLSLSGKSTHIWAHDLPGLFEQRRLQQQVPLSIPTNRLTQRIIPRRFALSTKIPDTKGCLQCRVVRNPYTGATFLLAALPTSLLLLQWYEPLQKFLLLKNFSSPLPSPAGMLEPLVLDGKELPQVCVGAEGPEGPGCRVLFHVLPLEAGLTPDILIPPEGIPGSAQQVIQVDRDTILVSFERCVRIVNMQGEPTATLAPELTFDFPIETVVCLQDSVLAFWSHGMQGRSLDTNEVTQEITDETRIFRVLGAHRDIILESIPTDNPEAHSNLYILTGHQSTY
Protocol: as §3, §4, §5

HIPK2 = HIPK2 (Homo sapiens, UniProt Q9H2X6); assay: Kinase selectivity profiling; assay type: biochemical; conditions: 1 µM, assay duplicates
Protocol: as §3, §4, §5

HIPK3 = HIPK3 (Homo sapiens, UniProt Q9H422); assay: Kinase selectivity profiling; assay type: biochemical; conditions: 1 µM, assay duplicates
Protocol: as §3, §4, §5

IRAK4 = IRAK4 (Homo sapiens, UniProt Q9NWZ3); assay: Kinase selectivity profiling; assay type: biochemical; conditions: 1 µM, assay duplicates
IRAK4, sequence (Q9NWZ3 whole entry): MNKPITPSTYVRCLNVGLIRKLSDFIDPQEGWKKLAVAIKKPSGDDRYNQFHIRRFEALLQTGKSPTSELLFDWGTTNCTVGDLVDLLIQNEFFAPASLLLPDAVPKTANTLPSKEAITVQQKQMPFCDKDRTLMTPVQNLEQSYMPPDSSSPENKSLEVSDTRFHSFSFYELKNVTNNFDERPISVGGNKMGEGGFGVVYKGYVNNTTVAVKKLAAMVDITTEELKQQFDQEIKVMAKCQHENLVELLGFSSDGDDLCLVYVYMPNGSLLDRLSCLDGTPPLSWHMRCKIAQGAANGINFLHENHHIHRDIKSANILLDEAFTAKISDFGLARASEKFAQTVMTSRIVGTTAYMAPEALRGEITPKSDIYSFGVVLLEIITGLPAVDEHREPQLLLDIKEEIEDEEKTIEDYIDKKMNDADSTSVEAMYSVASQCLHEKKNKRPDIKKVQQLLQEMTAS
Protocol: as §3, §4, §5

IRR = IRR (Homo sapiens, UniProt P14616); assay: Kinase selectivity profiling; assay type: biochemical; conditions: 1 µM, assay duplicates
IRR, sequence (P14616 27-1297): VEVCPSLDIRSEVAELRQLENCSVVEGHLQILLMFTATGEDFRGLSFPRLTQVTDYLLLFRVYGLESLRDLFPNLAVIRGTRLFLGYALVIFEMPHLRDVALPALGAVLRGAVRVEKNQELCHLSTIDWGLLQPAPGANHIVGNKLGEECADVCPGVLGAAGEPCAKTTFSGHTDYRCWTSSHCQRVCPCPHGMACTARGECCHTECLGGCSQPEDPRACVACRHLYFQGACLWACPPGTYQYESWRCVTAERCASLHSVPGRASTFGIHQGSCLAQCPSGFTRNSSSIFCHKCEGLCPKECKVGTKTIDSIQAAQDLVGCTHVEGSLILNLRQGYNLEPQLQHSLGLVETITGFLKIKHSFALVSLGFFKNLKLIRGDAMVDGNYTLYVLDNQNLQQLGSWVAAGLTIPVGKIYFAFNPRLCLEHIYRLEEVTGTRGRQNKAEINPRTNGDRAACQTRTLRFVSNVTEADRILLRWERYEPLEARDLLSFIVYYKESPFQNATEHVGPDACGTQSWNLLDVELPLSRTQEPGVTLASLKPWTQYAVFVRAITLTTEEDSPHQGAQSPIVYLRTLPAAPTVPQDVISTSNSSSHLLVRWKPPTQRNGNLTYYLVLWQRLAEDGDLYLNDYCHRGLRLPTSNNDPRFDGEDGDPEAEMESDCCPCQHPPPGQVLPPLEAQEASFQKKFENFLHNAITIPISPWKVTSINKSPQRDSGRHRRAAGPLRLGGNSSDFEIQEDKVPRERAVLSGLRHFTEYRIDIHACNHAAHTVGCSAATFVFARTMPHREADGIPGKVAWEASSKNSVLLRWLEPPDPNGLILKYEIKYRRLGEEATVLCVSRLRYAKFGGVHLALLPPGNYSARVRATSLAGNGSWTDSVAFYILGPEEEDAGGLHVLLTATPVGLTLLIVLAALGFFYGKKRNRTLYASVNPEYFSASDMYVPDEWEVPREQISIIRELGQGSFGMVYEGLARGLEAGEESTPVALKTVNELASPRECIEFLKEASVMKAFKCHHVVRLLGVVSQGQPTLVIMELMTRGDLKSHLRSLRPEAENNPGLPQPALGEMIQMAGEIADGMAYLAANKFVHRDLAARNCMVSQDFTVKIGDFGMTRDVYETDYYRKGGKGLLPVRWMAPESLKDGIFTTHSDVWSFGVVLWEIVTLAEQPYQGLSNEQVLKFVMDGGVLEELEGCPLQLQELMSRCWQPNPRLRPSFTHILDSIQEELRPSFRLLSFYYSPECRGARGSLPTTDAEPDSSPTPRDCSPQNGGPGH
Protocol: as §3, §4, §5

JNK2 = JNK2 (Homo sapiens, UniProt P45984); assay: Kinase selectivity profiling; assay type: biochemical; conditions: 1 µM, assay duplicates
Protocol: as §3, §4, §5

MAPKAP-K3 = MAPKAP-K3 (Homo sapiens, UniProt Q16644); assay: Kinase selectivity profiling; assay type: biochemical; conditions: 1 µM, assay duplicates
Protocol: as §3, §4, §5

MARK4 = MARK4 (Homo sapiens, UniProt Q96L34); assay: Kinase selectivity profiling; assay type: biochemical; conditions: 1 µM, assay duplicates
Protocol: as §3, §4, §5

MLK3 = MLK3 (Homo sapiens, UniProt Q16584); assay: Kinase selectivity profiling; assay type: biochemical; conditions: 1 µM, assay duplicates
Protocol: as §3, §4, §5

MNK2 = MNK2 (Homo sapiens, UniProt Q9HBH9); assay: Kinase selectivity profiling; assay type: biochemical; conditions: 1 µM, assay duplicates
Protocol: as §3, §4, §5

NEK6 = NEK6 (Homo sapiens, UniProt Q9HC98); assay: Kinase selectivity profiling; assay type: biochemical; conditions: 1 µM, assay duplicates
NEK6, sequence (Q9HC98 whole entry): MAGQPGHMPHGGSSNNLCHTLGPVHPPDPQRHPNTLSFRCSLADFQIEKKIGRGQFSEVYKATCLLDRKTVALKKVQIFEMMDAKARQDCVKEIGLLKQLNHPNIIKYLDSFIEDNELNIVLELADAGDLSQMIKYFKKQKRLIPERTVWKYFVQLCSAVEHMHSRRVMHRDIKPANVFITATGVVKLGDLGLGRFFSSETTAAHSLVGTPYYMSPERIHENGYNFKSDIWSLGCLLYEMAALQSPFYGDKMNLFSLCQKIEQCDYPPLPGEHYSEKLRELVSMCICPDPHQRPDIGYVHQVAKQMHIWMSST
Protocol: as §3, §4, §5

PDK1 = PDK1 (Homo sapiens, UniProt O15530); assay: Kinase selectivity profiling; assay type: biochemical; conditions: 1 µM, assay duplicates
Protocol: as §3, §4, §5

PHK = PHK (Homo sapiens, UniProt Q16816); assay: Kinase selectivity profiling; assay type: biochemical; conditions: 1 µM, assay duplicates
Protocol: as §3, §4, §5

PIM3 = PIM3 (Homo sapiens, UniProt Q86V86); assay: Kinase selectivity profiling; assay type: biochemical; conditions: 1 µM, assay duplicates
Protocol: as §3, §4, §5

PKBb = PKBb (Homo sapiens, UniProt P31751); assay: Kinase selectivity profiling; assay type: biochemical; conditions: 1 µM, assay duplicates
Protocol: as §3, §4, §5

PKCa = PKCa (Homo sapiens, UniProt P17252); assay: Kinase selectivity profiling; assay type: biochemical; conditions: 1 µM, assay duplicates
Protocol: as §3, §4, §5

SYK = SYK (Homo sapiens, UniProt P43405); assay: Kinase selectivity profiling; assay type: biochemical; conditions: 1 µM, assay duplicates
Protocol: as §3, §4, §5

SmMLCK = SmMLCK (Homo sapiens, UniProt Q15746); assay: Kinase selectivity profiling; assay type: biochemical; conditions: 1 µM, assay duplicates
Protocol: as §3, §4, §5

VEG-FR = VEG-FR (Homo sapiens, UniProt P17948); assay: Kinase selectivity profiling; assay type: biochemical; conditions: for VEGFR inhibition: 1 μM; for VEG-FR % activity remaining: 1 µM, assay duplicates
VEG-FR, sequence (P17948 27-1338): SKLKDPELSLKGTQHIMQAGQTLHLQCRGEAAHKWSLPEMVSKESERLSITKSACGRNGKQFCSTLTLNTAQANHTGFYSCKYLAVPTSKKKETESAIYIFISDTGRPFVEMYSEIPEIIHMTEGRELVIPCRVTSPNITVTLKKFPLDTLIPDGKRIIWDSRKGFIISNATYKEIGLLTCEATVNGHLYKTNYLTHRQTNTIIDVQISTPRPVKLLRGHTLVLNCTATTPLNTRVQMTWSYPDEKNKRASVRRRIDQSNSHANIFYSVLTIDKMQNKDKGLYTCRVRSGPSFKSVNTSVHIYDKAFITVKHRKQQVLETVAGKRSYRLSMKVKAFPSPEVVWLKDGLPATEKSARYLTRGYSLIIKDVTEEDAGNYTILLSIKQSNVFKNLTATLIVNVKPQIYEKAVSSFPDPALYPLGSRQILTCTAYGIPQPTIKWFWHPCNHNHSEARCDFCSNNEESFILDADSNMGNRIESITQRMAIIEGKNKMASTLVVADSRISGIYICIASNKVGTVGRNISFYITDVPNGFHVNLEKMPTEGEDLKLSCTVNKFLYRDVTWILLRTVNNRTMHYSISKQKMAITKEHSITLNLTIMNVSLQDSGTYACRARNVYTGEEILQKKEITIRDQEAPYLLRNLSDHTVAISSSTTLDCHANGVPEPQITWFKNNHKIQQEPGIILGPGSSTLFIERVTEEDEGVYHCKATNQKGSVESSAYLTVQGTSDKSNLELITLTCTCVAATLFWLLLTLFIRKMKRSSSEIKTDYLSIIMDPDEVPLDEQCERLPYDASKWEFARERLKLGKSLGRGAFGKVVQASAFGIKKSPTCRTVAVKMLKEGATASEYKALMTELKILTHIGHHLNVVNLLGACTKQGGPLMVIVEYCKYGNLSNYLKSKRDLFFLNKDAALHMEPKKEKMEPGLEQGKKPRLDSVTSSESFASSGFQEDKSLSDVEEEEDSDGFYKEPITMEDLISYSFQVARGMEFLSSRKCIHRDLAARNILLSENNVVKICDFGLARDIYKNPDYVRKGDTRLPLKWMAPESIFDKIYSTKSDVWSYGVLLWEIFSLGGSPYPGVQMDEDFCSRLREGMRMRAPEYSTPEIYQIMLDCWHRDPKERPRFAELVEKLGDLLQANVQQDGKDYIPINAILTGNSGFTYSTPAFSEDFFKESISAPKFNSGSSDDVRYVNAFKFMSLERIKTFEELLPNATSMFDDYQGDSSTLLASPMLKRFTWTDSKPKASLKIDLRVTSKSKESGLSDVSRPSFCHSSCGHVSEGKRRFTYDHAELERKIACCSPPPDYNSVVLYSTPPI
Protocol: as §3, §4, §5

p38b MAPK = p38b MAPK (Homo sapiens, UniProt Q15759); assay: Kinase selectivity profiling; assay type: biochemical; conditions: 1 µM, assay duplicates
Protocol: as §3, §4, §5

p38g MAPK = p38g MAPK (Homo sapiens, UniProt P53778); assay: Kinase selectivity profiling; assay type: biochemical; conditions: 1 µM, assay duplicates
Protocol: as §3, §4, §5

Row | SMILES | IC50 (Aurora A [1]) | IC50 (Aurora B) | HLM % met/30 min [2] | Aurora A % activity remaining (Aurora A [3]) | BRSK2 % activity remaining (BRSK2) | CK2 % activity remaining (CK2) | DYRK1A % activity remaining (DYRK1A) | DYRK2 % activity remaining (DYRK2) | DYRK3 % activity remaining (DYRK3) | EF2K % activity remaining (EF2K) | GCK % activity remaining (GCK) | HIPK2 % activity remaining (HIPK2) | HIPK3 % activity remaining (HIPK3) | IRAK4 % activity remaining (IRAK4) | IRR % activity remaining (IRR) | JNK2 % activity remaining (JNK2) | MAPKAP-K3 % activity remaining (MAPKAP-K3) | MARK4 % activity remaining (MARK4) | MLK3 % activity remaining (MLK3) | MNK2 % activity remaining (MNK2) | also measured
1 | Cc1nn(C)cc1-c1nc2c(-c3cnn(Cc4ccccc4)c3)c(Cl)cnc2[nH]1 [Compound 7a] | 212 ± 107 nM | 461 ± 147 nM | 43% | 1% | 33% | 62% | 3% | 29% | 25% | 94% | 22% | 6% | 9% | 28% | 20% | 17% | 69% | 37% | 2% | 44% | NEK6 % activity remaining (NEK6): 64%; PDK1 % activity remaining (PDK1): 52%; PHK % activity remaining (PHK): 17%; PIM3 % activity remaining (PIM3): 45%; PKBb % activity remaining (PKBb): 62%; PKCa % activity remaining (PKCa): 63%; SYK % activity remaining (SYK): 37%; SmMLCK % activity remaining (SmMLCK): 51%; VEGFR inhibition (VEG-FR): greater than 80%; VEG-FR % activity remaining (VEG-FR): 6%; p38b MAPK % activity remaining (p38b MAPK): 91%; p38g MAPK % activity remaining (p38g MAPK): 17%
2 | Cc1cc(Cn2cc(-c3c(Cl)cnc4[nH]c(-c5cn(C)nc5C)nc34)cn2)no1 [Compound 14d] | 35 nM | 75 nM | 37% | 1% | 72% | 57% | 9% | 34% | 30% | 102% | 40% | 11% | 49% | 33% | 24% | 48% | 103% | 25% | 6% | 32% | NEK6 % activity remaining (NEK6): 116%; PDK1 % activity remaining (PDK1): 49%; PHK % activity remaining (PHK): 27%; PIM3 % activity remaining (PIM3): 55%; PKBb % activity remaining (PKBb): 94%; PKCa % activity remaining (PKCa): 83%; SYK % activity remaining (SYK): 49%; SmMLCK % activity remaining (SmMLCK): 43%; VEGFR inhibition (VEG-FR): ≥ 80%; VEG-FR % activity remaining (VEG-FR): 7%; p38b MAPK % activity remaining (p38b MAPK): 91%; p38g MAPK % activity remaining (p38g MAPK): 36%
